Patent publication US20080167290A1, “Combination of a Serotonin Reuptake Inhibitor and Amoxapine” (H. Lundbeck A/S, priority 2003, published 2008)
Where two headings read alike, the source gives them in different places.

Test system: 5-HT levels in ventral hippocampus
Conditions: for effects on hippocampal 5-HT levels: amoxapine alone, rat ventral hippocampus microdialysis
Description: Male albino rats of a Wistar-derived strain (285-320 g; Harlan, Zeist, The Netherlands) were used for the experiments. Upon surgery, rats were housed individually in plastic cages (35×35×40 cm), and had free access to food and water. Animals were kept on a 12 h light schedule (light on 7:00 a.m.). The experiments are concordant with the declarations of Helsinki and were approved by the animal care committee of the faculty of mathematics and natural science of the University of Groningen.
Preceding surgery rats were anaesthetised using isoflurane (O2/N2O; 300/300 ml/min). Lidocaine-HCl, 10% (m/v) was used for local anaesthesia.
Rats were allowed to recover for at least 24 h. […] 15 minute microdialysis samples were collected in HPLC vials containing 7.5 μl 0.02 M acetic acid for serotonin analysis.
Twenty-μl microdialysate samples were injected via an autoinjector (CMA/200 refrigerated microsampler, CMA, Sweden) onto a 100×2.0 mm C18 Hypersil 3 μm column (Bester, Amstelveen, the Netherlands) and separated with a mobile phase consisting of 5 g/L di-ammoniumsulfate, 500 mg/L EDTA, 50 mg/L heptane sulphonic acid, 4% methanol v/v, and 30 μl/L of triethylamine, pH 4.65 at a flow of 0.4 ml/min (Shimadzu LC-10 AD). 5-HT was detected amperometrically at a glassy carbon electrode at 500 mV vs Ag/AgCl (Antec Leyden, Leiden, The Netherlands). The detection limit was 0.5 fmol 5-HT per 20 μl sample (signal to noise ratio 3).
Four consecutive microdialysis samples with less then 20% variation were taken as control and set at 100%. […] Treatments were compared versus controls using two way analysis of variance (ANOVA) for repeated measurements, followed by Student Newman Keuls test. […] Level of significance level was set at p<0.05.

SMILES: Clc1ccc2c(c1)C(N1CCNCC1)=Nc1ccccc1O2 [amoxapine]
- effects on hippocampal 5-HT levels (1 μmol/kg s.c., P=0.08): did not induce any significant effects
- effects on hippocampal 5-HT levels (10 μmol/kg s.c., P=0.47): did not induce any significant effects
- response in the 5-HT microdialysis model (summary statement, dose not stated, compared to the serotonin reuptake inhibitor alone): no significant effect
